Laboratory results: patent US7345070B2, “Peroxisome proliferator activated receptor agonists” (Eli Lilly and Company, priority 2000, dated 2008)

Assays:
HuapoAI transgenic mice = assay: Evaluation of triglyceride and cholesterol level in HuapoAI transgenic mice; assay type: in vivo; conditions: human apoAI transgenic mice; for change in vivo at 30 mg/kg / inhibition in vivo at 30 mg/kg: Mus musculus, 168 h, 30 mg/kg oral gavage daily for 7 days; for change in vivo at 30 mg/kg: FPLC area under the curve, over mice receiving vehicle, read-out: % HDLc Increase; for inhibition in vivo at 30 mg/kg: serum 3 h after dosing, read-out: Reduction in Triglyceride Serum Level
Protocol: After an acclimation period of 2 weeks, animals were individually identified by ear notches, weighed, and assigned to groups based on body weight. Beginning the following morning, mice were dosed daily by oral gavage for 7 days using a 20 gauge, 1½″ curved disposable feeding needle (Popper & Sons). […] Prior to termination on day 7, mice were weighed and dosed. Three hours after dosing, animals were anesthetized by inhalation of isoflurane (2-4%; Abbott Laboratories, Chicago, Ill.) and blood obtained via cardiac puncture (0.7-1.0 ml). Whole blood was transferred to serum separator tubes (Vacutainer SST), chilled on ice, and permitted to clot. Serum was obtained after centrifugation at 4° C. and frozen until analysis for triglycerides, total cholesterol, compound levels, and serum lipoprotein profile by fast protein liquid chromatography (FPLC) coupled to an inline detection system. After sacrifice by cervical dislocation, the liver, heart and epididymal fat pads were excised and weighed.
The absorbance of the dye produced is linearly related to the analyte in the sample. The assays were further modified in our laboratory for use in a 96 well format. […] An additional aliquot of sample, pipetted to a third well and diluted in 200 μl water, provided a blank for each specimen. […] Sample absorbances were compared to a standard curve (100-800, 10-500, and 100-400 mg/dl for glucose, triglycerides and total cholesterol, respectively). […] All samples from an experiment were assayed at the same time to minimize inter-assay variability.
Serum lipoproteins were separated and cholesterol quantitated with an in-line detection system. Sample was applied to a Superose® 6 HR 10/30 size exclusion column (Amersham Pharmacia Biotech) and eluted with phosphate buffered saline-EDTA at 0.5 ml/min. […] The change in voltage corresponding to change in cholesterol concentration was plotted vs time and the area under the curve corresponding to the elution of VLDL, LDL and HDL was calculated using Perkin Elmer Turbochrome software.

db/db mice = assay: Evaluation of glucose levels in db/db mice; assay type: in vivo; conditions: Mus musculus, 168 h, 30 mg/kg oral gavage daily for 7 days, 100% = glucose not different from lean values, read-out: Glucose Normalisation
Protocol: Five week old male diabetic (db/db) mice [C57BlKs/j-m+/+ Lepr(db), Jackson Laboratory, Bar Harbor, Me.] or lean littermates (db+) were housed 6 per cage (10″×20″×8″ with aspen chip bedding) with food (Purina 5015) and water available at all times. After an acclimation period of 2 weeks, animals were individually identified by ear notches, weighed, and bled via the tail vein for determination of initial glucose levels. Blood was collected (100 μl) from unfasted animals by wrapping each mouse in a towel, cutting the tip of the tail with a scalpel, and milking blood from the tail into a heparinized capillary tube (Fisher) balanced on the edge of the bench. Sample was discharged into a heparinized microtainer with gel separator (VWR) and retained on ice. Plasma was obtained after centrifugation at 4° C. and glucose measured immediately. Remaining plasma was frozen until the completion of the experiment, when glucose and triglycerides were assayed in all samples. Animals were grouped based on initial glucose levels and body weights. Beginning the following morning, mice were dosed daily by oral gavage for 7 days using a 20 gauge, 1½″ curved disposable feeding needle. Treatments were test compounds (30 mg/kg), a positive control agent (30 mg/kg) or vehicle [1% carboxymethylcellulose (w/v)/0.25% Tween80 (w/v); 0.3 ml/mouse]. On day 7, mice were weighed and bled (tail vein) 3 hours after dosing. Twenty-four hours after the 7th dose (i.e., day 8), animals were bled again (tail vein). Samples obtained from conscious animals on days 0, 7 and 8 were assayed for glucose. After the 24 hour bleed, animals were weighed and dosed for the final time. Three hours after dosing on day 8, animals were anesthetized by inhalation of isoflurane and blood obtained via cardiac puncture (0.5-0.7 ml). Whole blood was transferred to serum separator tubes, chilled on ice and permitted to clot. Serum was obtained after centrifugation at 4° C. and frozen until analysis for compound levels. After sacrifice by cervical dislocation, the liver, heart and epididymal fat pads were excised and weighed.
The animals dosed with vehicle had average triglycerides values of 170-230 mg/dl, which were reduced by the positive PPARγ control (70-120 mg/dl with a mean reduction of 50%). Male db/db mice were hyperglycemic (average glucose of 680-730 mg/dl on the 7th day of treatment), while lean animals had average glucose levels between 190-230 mg/dl.
Glucose was measured […] using commercially purchased reagents (Sigma #315-500). According to the manufacturers, the procedures were modified from published work (McGowan, M. W., Artiss, J. D., Strandbergh, D. R. & Zak, B. Clin Chem, 20:470-5 (1974) and Keston, A. Specific colorimetric enzymatic analytical reagents for glucose. Abstract of papers 129th Meeting ACS, 31C (1956).); and depend on the release of a mole of hydrogen peroxide for each mole of analyte, coupled with a color reaction first described by Trinder (Trinder, P. Determination of glucose in blood using glucose oxidase with an alternative oxygen acceptor. Ann Clin Biochem, 6:24 (1969)). The absorbance of the dye produced is linearly related to the analyte in the sample. The assays were further modified in our laboratory for use in a 96 well format. Standards (Sigma #339-11, Sigma #16-11, and Sigma #CC0534 for glucose, triglycerides and total cholesterol, respectively), quality control plasma (Sigma # A2034), and samples (2 or 5 μl/well) were measured in duplicate using 200 μl of reagent. An additional aliquot of sample, pipetted to a third well and diluted in 200 μl water, provided a blank for each specimen. Plates were incubated at room temperature (18, 15, and 10 minutes for glucose, triglycerides and total cholesterol, respectively) on a plate shaker (DPC Micormix 5) and absorbance read at 500 nm (glucose and total cholesterol) or 540 nm (triglycerides) on a plate reader (Wallac Victor 1420). […]

huPPARα = assay: Cotransfection assay in CV-1 cells, huPPARα; assay type: cell-based, human; conditions: GAL4 chimeric system, relative to PPARα agonist reference molecule
Protocol: DNA-dependent binding (ABCD binding) was carried out using SPA technology with PPAR receptors. Tritium-labeled PPARα and PPARγ agonists were used as radioligands for generating displacement curves and IC50 values with compounds of the invention. Cotransfection assays were carried out in CV-1 cells. The reporter plasmid contained an acylCoA oxidase (AOX) PPRE and TK promoter upstream of the luciferase reporter cDNA. Appropriate PPARs and RXRα were constitutively expressed using plasmids containing the CMV promoter. […] In order to eliminate such interference, a GAL4 chimeric system was used in which the DNA binding domain of the transfected PPAR was replaced by that of GAL4, and the GAL4 response element was utilized in place of the AOX PPRE. Cotransfection efficacy was determined relative to PPARα agonist and PPARγ agonist reference molecules. Efficacies were determined by computer fit to a concentration-response curve, or in some cases at a single high concentration of agonist (10 μM). For binding or cotransfection studies with receptors other than PPARs, similar assays were carried out using appropriate ligands, receptors, reporter constructs, etc., for that particular receptor.
These studies were carried out to evaluate the ability of compounds of the invention to bind to and/or activate various nuclear transcription factors, particularly huPPARα (“hu” indicates “human”) and huPPARγ. These studies provide in vitro data concerning efficacy and selectivity of compounds of the invention. Furthermore, binding and cotransfection data for compounds of the invention were compared with corresponding data for marketed compounds that act on either huPPARα or huPPARγ.

[1] = 100 mg/kg oral daily 7 days, vs vehicle

Row | Compound | change in vivo at 30 mg/kg (HuapoAI transgenic mice) | inhibition in vivo at 30 mg/kg (HuapoAI transgenic mice) | inhibition in vivo at 30 mg/kg (db/db mice) | further results
1 | Cc1oc(-c2ccccc2)nc1CCOc1ccc(CC(C)(Oc2ccccc2)C(=O)O)cc1 (racemic) [Example 1, rac-3-{4-[2-(2-Phenyl-5-methyl-oxazol-4-yl)-ethoxy]-phenyl}-2-methyl-2-phenoxy-propionic acid] | 83% | 41.3% | 95% | 
2 | Cc1oc(-c2cccs2)nc1CCOc1ccc(CC(C)(Oc2ccccc2)C(=O)O)cc1 (racemic) [Example 4, rac-2-Methyl-3-{4-[2-(5-methyl-2-thiophen-2-yl-oxazol-4-yl)-ethoxy]-phenyl}-2-phenoxypropionic acid] | 24% | 58.3% | 74% | 
3 | Cc1oc(-c2ccccc2)nc1CCOc1ccc(C[C@@](C)(Oc2ccccc2)C(=O)O)cc1 [Example 2, (R)-3-{4-[2-(2-Phenyl-5-methyl-oxazol-4-yl)-ethoxy]-phenyl}-2-methyl-2-phenoxy-propionic acid] | 25% | -12.9% | 9% | 
4 | Cc1oc(-c2ccccc2)nc1CCOc1ccc(C[C@](C)(Oc2ccccc2)C(=O)O)cc1 [Example 3, (S)-3-{4-[2-(2-Phenyl-5-methyl-oxazol-4-yl)-ethoxy]-phenyl}-2-methyl-2-phenoxy-propionic acid] | 67% |  | 85% | 
5 | Cc1oc(-c2cccs2)nc1CCOc1ccc(C[C@@](C)(Oc2ccccc2)C(=O)O)cc1 [Example 5, (R)-2-Methyl-3-{4-[2-(5-methyl-2-thiophen-2-yl-oxazol-4-yl)-ethoxy]-phenyl}-2-phenoxypropionic acid] | 30% | 19.7% | 80% | 
6 | Cc1oc(-c2cccs2)nc1CCOc1ccc(C[C@](C)(Oc2ccccc2)C(=O)O)cc1 [Example 6, (S)-2-Methyl-3-{4-[2-(5-methyl-2-thiophen-2-yl-oxazol-4-yl)-ethoxy]-phenyl}-2-phenoxypropionic acid] | 85% | 38.5% | 86% | 
7 | Cc1oc(C2CCCCC2)nc1CCOc1ccc(CC(C)(Oc2ccccc2)C(=O)O)cc1 (stereo not drawn) [Example 7, 2-Methyl-3-(4-{2-[5-methyl-2-cyclohexyl-oxazol-4-yl]-ethoxy}-phenyl)-2-phenoxypropionic acid] | 39% | 42.1% | 86% | 
8 | Cc1c(C)c2c(c(C)c1O)CCC(C)(COc1ccc(CC3SC(=O)NC3=O)cc1)O2 (stereo not drawn) [Troglitazone, reference compound] |  |  |  | huPPARα CTF Efficacy (huPPARα): 0%
9 | CC(C)OC(=O)C(C)(C)Oc1ccc(C(=O)c2ccc(Cl)cc2)cc1 [fenofibrate, reference compound] |  |  |  | HDLc peak area (HuapoAI transgenic mice; 100 mg/kg oral daily 7 days, FPLC of pooled sera, vehicle 47-62 v-sec): 68-96 v-sec; mean percent increase of HDLc (HuapoAI transgenic mice; 100 mg/kg oral daily 7 days, FPLC, vs vehicle): 48%; mean elevation of total serum cholesterol (HuapoAI transgenic mice; [1]): 41%; mean reduction of triglycerides (HuapoAI transgenic mice; [1]): 37%; average triglycerides values (HuapoAI transgenic mice; 100 mg/kg oral daily 7 days, vehicle 60-80 mg/dl): 33 to 58 mg/dL; average total serum cholesterol values (HuapoAI transgenic mice; 100 mg/kg oral daily 7 days, vehicle 140-180 mg/dl): 190 to 280 mg/dL
